{
  "source": "patent US20060063774A1",
  "about": "“Phosphodiesterase inhibitor compounds and nitric oxide donors” (priority 2004, published 2006)",
  "system": "human corpus cavernosum tissue",
  "test": "In vitro comparative relaxation responses in phenylephrine-contracted human corpus cavernosum tissue strips (organ chamber, isometric tension)",
  "format": "cell-based",
  "conditions": "10 μM and 30 μM, cumulative additions; tissue contracted with phenylephrine 7×10^−7 M; −100% = tone after papaverine 10^−4 M; comparator equimolar dipyridamole; FIG. 40",
  "from_the_text": "FIG. 40 Graph of comparative in vitro relaxation effects of dipyridamole and Example 1 in phenylephrine induced contacted human corpus cavernosum tissue.\nHuman corpus cavernosum tissue biopsies were obtained at the time of penile prosthesis implantation from impotent men. The tissue was maintained in a chilled Krebs-bicarbonate solution prior to assay. The tissue was cut into strips of 0.3×0.3×1 cm and suspended in organ chambers for isometric tension measurement. Tissues were incrementally stretched until optimal isometrtic tension for contraction was obtained. Once this was achieved, the tissues were contracted with phenylephine (7×10^−7 M) and once a stable contraction was achieved, the tissues were exposed to either dipyridamole or Example 1 (10^−6 to 3×10^−5 M) by cumulative additions to the chamber. At the end of the experiment papaverine (10^−4 M) is added to obtain maximal relaxation. […] Data are expressed as the percent loss in tone from the phenylephrine-induced contraction (0%=phenylephrine contraction; −100%=tone after the administration of papaverine).",
  "data": [
    {"molecule": "CC(C)(CC(=O)OCCN(CCOC(=O)CC(C)(C)SN=O)c1nc(N2CCCCC2)c2nc(N(CCOC(=O)CC(C)(C)SN=O)CCOC(=O)CC(C)(C)SN=O)nc(N3CCCCC3)c2n1)SN=O", "note": "[Example 1, 2,6-bis(diethyl(3-methyl-3(nitrosothiol)butyric acid ester)amino)-4,8-dipiperidinopyrimido-[5,4-d]-pyrimidine]", "values": [
      {"measurement": "relaxation of the phenylephrine-induced contraction (percent loss in tone), compared with dipyridamole", "result": "more efficacious in relaxing the phenylephrine-induced contaction than is an equimolar dose of the phosphodiesterase inhibitor dipyridamole"}
    ]}
  ]
}
